Measured values published in ChEMBL document CHEMBL1201862, “PubChem BioAssay data set” (2004).
The source made the active and inactive calls.

Experiments:
Type in all cases: functional
CHO-K1 = test: (§1) Counterscreen for antagonists of the orexin 1 receptor (OX1R; HCRTR1): Homogeneous time resolved fluorescence (HTRF)-based cell-based dose response assay to identify antagonists of the parental CHO-K1 cell line. [Related pubchem assays (depositor defined):AID434989, AID435008, AID463079, AID485270, AID492963, AID492964, AID492965, AID493232, AID504699, AID504701]; conditions: Cricetulus griseus
[1] = as §1, with “Fluorescence-based” for “Homogeneous time resolved fluorescence (HTRF)-based”, “cell-based high throughput” for “cell-based”, “CHO” for “CHO-K1”
[2] = biological target: T1, Orexin/Hypocretin receptor type 1 (Homo sapiens, UniProt O43613); test: Homogeneous Time Resolved Fluorescence (HTRF)-based cell-based high throughput dose response assay for antagonists of the orexin 1 receptor (OX1R; HCRTR1). [Related pubchem assays (depositor defined):AID434989, AID435008, AID463079, AID485270, AID492963, AID492964, AID492965, AID493232, AID504717, AID504718]
T1 sequence (O43613 whole entry): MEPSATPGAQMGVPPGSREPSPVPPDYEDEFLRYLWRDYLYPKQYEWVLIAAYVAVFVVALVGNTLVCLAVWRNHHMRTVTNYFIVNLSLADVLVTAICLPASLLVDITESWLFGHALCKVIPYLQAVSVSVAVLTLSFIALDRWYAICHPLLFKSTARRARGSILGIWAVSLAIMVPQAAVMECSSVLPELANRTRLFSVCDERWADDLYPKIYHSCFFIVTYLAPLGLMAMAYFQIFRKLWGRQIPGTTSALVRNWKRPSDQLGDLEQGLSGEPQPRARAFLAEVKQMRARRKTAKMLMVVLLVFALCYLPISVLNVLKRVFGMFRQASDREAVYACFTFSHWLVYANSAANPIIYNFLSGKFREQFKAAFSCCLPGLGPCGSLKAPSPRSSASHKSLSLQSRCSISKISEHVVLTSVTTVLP

[3] = biological target: T2, Heat shock factor protein 1 (Mus musculus, UniProt P38532); test: enhancement of HSF1-driven luciferase signal – cell-based, NIH3T3, luminescence, dose retest, confirmation (AID 435004);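 note: stress induced by proteasome inhibitor MG132 added 30 min after compound; luciferase reporter driven by HSF1 response element in NIH3T3 cells; actives raise luminescence as potentiators of the MG132 stress response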
T2 sequence (P38532 whole entry): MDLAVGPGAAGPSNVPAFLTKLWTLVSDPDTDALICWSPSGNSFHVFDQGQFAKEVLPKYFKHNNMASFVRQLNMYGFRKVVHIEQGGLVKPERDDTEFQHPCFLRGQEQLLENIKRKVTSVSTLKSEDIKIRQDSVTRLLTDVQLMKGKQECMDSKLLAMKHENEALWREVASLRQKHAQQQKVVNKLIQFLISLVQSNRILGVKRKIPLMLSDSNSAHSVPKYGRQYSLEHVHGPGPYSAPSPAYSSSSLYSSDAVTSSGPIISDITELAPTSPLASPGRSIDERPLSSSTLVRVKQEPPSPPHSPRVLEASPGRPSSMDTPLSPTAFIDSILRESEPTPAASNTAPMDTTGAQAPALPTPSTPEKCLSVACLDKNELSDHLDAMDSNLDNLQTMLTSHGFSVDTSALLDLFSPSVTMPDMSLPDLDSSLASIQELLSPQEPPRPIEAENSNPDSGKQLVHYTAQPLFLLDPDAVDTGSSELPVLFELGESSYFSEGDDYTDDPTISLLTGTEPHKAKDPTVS

[4] = biological target: T1, Orexin/Hypocretin receptor type 1; test: Fluorescence-based cell-based high throughput dose response assay for antagonists of the orexin 1 receptor (OX1R; HCRTR1). [Related pubchem assays (depositor defined):AID434989, AID435008, AID463079, AID485270, AID492963, AID492964, AID492965, AID493232, AID504717, AID504718]

OC(CN1c2ccccc2Sc2ccccc21)Cn1nnc2ccccc21 (stereo not given)
inactive: IC50 (CHO-K1) > 66.2 µM | IC50 [1] 21.3 µM | IC50 [2] 13.3 µM | EC50 [3] > 260 µM | IC50 [4] 16.4 µM
